Structures are written as SMILES. Where two headings read alike, the source gives them in different places.

The target in one assay is T1, human CB1 receptors (Homo sapiens, UniProt P21554).
T1 construct: expressed in transfected cells; host or cells: CHO cells
Briefly: cAMP assay. The assay is classed as cell-based. On the procedure: (§1) CHO cells expressing human CB1 or CB2 receptors are seeded 17-24 hours prior to the experiment 50.000 cells per well in a black 96 well plate with flat clear bottom (Corning Costar #3904) in DMEM (Invitrogen No. 31331), 1×HT supplement, with 10% fetal calf serum and incubated at 5% CO2 and 37° C. in a humidified incubator. The growth medium was exchanged with Krebs Ringer Bicarbonate buffer with 1 mM IBMX and incubated at 30° C. for 30 min. Compounds were added to a final assay volume of 100 μl and incubated for 30 min at 30° C. Using the cAMP-Nano-TRF detection kit the assay (Roche Diagnostics) was stopped by the addition of 50 μl lysis reagent (Tris, NaCl, 1.5% Triton X100, 2.5% NP40, 10% NaN3) and 50 μl detection solutions (20 μM mAb Alexa700-cAMP 1:1, and 48 μM Ruthenium-2-AHA-cAMP) and shaken for 2 h at room temperature. The time-resolved energy transfer is measured by a TRF reader (Evotec Technologies GmbH), equipped with a ND:YAG laser as excitation source. The plate is measured twice with the excitation at 355 nm and at the emission with a delay of 100 ns and a gate of 100 ns, total exposure time 10 s at 730 (bandwidth 30 nm) or 645 nm (bandwidth 75 nm), respectively. The FRET signal is calculated as follows: FRET=T730-Alexa730-P(T645-B645) with P=Ru730-B730/Ru645-B645, where T730 is the test well measured at 730 nM, T645 is the test well measured at 645 nm, B730 and B645 are the buffer controls at 730 nm and 645 nm, respectively. cAMP content is determined from the function of a standard curve spanning from 10 μM to 0.1 nM cAMP.
(§2) EC50 values were determined using Activity Base analysis (ID Business Solution, Limited). The EC50 values for a wide range of cannabinoid agonists generated from this assay were in agreement with the values published in the scientific literature.

For the next assay, the target named is T2, human CB2 receptors (Homo sapiens, UniProt P34972).
T2 construct: expressed in transfected cells; host or cells: CHO cells
Briefly: cAMP assay. The assay is classed as cell-based. As to the method:
as §1, §2

The mark [1] stands for this setting: functional cAMP assay, CHO cells expressing human CB2, read-out: human CB2 EC50.

T2 sequence (P34972 whole entry): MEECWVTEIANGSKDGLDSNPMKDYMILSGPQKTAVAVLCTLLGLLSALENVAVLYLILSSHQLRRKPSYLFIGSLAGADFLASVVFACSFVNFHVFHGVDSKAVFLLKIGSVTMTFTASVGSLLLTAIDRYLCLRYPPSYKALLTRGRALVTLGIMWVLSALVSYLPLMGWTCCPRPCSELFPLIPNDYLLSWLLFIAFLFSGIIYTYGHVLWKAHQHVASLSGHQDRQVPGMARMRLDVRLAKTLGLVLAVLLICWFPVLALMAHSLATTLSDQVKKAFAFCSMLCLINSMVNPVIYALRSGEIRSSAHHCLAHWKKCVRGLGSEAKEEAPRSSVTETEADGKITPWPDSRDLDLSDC
T1 sequence (P21554 whole entry): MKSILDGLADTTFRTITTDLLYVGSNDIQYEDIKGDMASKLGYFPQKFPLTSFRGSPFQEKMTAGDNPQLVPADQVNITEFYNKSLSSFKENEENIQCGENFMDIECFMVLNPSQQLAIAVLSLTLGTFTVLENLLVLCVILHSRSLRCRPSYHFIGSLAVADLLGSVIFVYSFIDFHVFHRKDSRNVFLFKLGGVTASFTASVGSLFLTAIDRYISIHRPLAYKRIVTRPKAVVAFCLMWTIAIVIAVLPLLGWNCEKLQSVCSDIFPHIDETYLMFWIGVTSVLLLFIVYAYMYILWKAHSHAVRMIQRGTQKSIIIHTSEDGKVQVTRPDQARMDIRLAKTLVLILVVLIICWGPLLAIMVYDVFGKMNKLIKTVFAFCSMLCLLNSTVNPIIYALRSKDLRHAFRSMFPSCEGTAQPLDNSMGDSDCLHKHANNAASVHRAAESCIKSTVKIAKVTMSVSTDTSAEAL

For the compound `CC(C)Oc1nc(N2CC[C@H](O)C2)c2nn(Cc3ccccc3Cl)nc2n1` [Example 111, (S)-1-[2-(2-Chloro-benzyl)-5-isopropoxy-2H-[1,2,3]triazolo[4,5-d]pyrimidin-7-yl]-pyrrolidin-3-ol], the EC50 at human CB1 receptors was greater than 10000 nM; at human CB2 receptors (setting [1]), 265 nM.

In the case of `CC(C)(C)c1nc(N2CC[C@H](O)C2)c2nn(Cc3cccc(Cl)c3Cl)nc2n1` [Example 78, (S)-1-[5-tert-Butyl-2-(2,3-dichloro-benzyl)-2H-[1,2,3]triazolo[4,5-d]pyrimidin-7-yl]-pyrrolidin-3-ol], the EC50 at human CB1 receptors was greater than 10000 nM; on human CB2 receptors, 6 nM.

With `COc1ccc(F)c(Cn2nc3nc(C(C)(C)C)nc(N4CCC(F)(F)C4)c3n2)c1Cl` [Example 57, 5-tert-Butyl-2-(2-chloro-6-fluoro-3-methoxy-benzyl)-7-(3,3-difluoro-pyrrolidin-1-yl)-2H-[1,2,3]triazolo[4,5-d]pyrimidine], the concentration giving a half-maximal response (EC50) on human CB1 receptors is greater than 10000 nM; on human CB2 receptors, 3.6 nM.

For `CC(C)(C)c1nc(N2CCC(F)(F)C2)c2nn(CCc3ccccn3)nc2n1` [Example 50, 5-tert-Butyl-7-(3,3-difluoro-pyrrolidin-1-yl)-2-(2-pyridin-2-yl-ethyl)-2H-[1,2,3]triazolo[4,5-d]pyrimidine], the values for the EC50 at human CB1 receptors and at human CB2 receptors were greater than 10000 nM and 1.5 nM, respectively.

Take `CC(C)(C)c1nc(N2CC[C@H](O)C2)c2nn(Cc3nnnn3C3CC3)nc2n1` [Example 94, (S)-1-[5-tert-Butyl-2-(1-cyclopropyl-1H-tetrazol-5-ylmethyl)-2H-[1,2,3]triazolo[4,5-d]pyrimidin-7-yl]-pyrrolidin-3-ol]: the EC50 at human CB1 receptors was greater than 10000 nM; at human CB2 receptors (setting [1]), 251 nM.

As to `Cc1nonc1Cn1nc2nc(C(C)(C)C)nc(N3CC(F)(F)C(F)(F)C3)c2n1` [Example 99, 5-tert-Butyl-2-(4-methyl-furazan-3-ylmethyl)-7-(3,3,4,4-tetrafluoro-pyrrolidin-1-yl)-2H-[1,2,3]triazolo[4,5-d]pyrimidine], the results for the EC50 on human CB1 receptors and at human CB2 receptors were greater than 10000 nM and 0.9 nM, respectively.

As for `Cc1nc(Cn2nc3nc(C(C)(C)C)nc(N4CCC(F)(F)C4)c3n2)n(C)n1` [Example 96, 5-tert-Butyl-7-(3,3-difluoro-pyrrolidin-1-yl)-2-(2,5-dimethyl-2H-[1,2,4]triazol-3-ylmethyl)-2H-[1,2,3]triazolo[4,5-d]pyrimidine], the results for the EC50 on human CB1 receptors and on human CB2 receptors were greater than 10000 nM and 22.6 nM, respectively.

For the compound `Cc1noc(Cn2nc3nc(C(C)(C)C)nc(N4CC(F)(F)C(F)(F)C4)c3n2)n1` [Example 100, 5-tert-Butyl-2-(3-methyl-[1,2,4]oxadiazol-5-ylmethyl)-7-(3,3,4,4-tetrafluoro-pyrrolidin-1-yl)-2H-[1,2,3]triazolo[4,5-d]pyrimidine], the EC50 was greater than 10000 nM on human CB1 receptors and 4.6 nM on human CB2 receptors.

As to `CC(C)(C)c1nc(N2CCC(F)(F)C2)c2nn(CCc3ccccc3)nc2n1` [Example 26, 5-tert-Butyl-7-(3,3-difluoro-pyrrolidin-1-yl)-2-phenethyl-2H-[1,2,3]triazolo[4,5-d]pyrimidine], the EC50 at human CB1 receptors came out at 386 nM; at human CB2 receptors it was 1.3 nM.

Regarding `CC(=O)N[C@H]1CCN(c2nc(NC(C)(C)C)nc3nn(Cc4ccccc4Cl)nc23)C1` [Example 144, N—{(S)-1-[5-tert-Butylamino-2-(2-chloro-benzyl)-2H-[1,2,3]triazolo[4,5-d]pyrimidin-7-yl]-pyrrolidin-3-yl}-acetamide], the EC50 on human CB1 receptors was greater than 10000 nM; on human CB2 receptors (setting [1]), 1950 nM.

Regarding `CC(C)(C)c1nc(N2CCC(F)(F)C2)c2nn(CC(=O)c3cccnc3)nc2n1` [Example 54, 2-[5-tert-Butyl-7-(3,3-difluoro-pyrrolidin-1-yl)-[1,2,3]triazolo[4,5-d]pyrimidin-2-yl]-1-pyridin-3-yl-ethanone], the 50% effective concentration (EC50) was greater than 10000 nM at human CB1 receptors and 6.5 nM at human CB2 receptors.

`CC(C)(C)c1nc(N2CC[C@H](O)C2)c2nn(Cc3cccnc3Cl)nc2n1` [Example 77, (S)-1-[5-tert-Butyl-2-(2-chloro-pyridin-3-ylmethyl)-2H-[1,2,3]triazolo[4,5-d]pyrimidin-7-yl]-pyrrolidin-3-ol]: the EC50 on human CB1 receptors is greater than 10000 nM; on human CB2 receptors, 15.5 nM.

Turning to `Cn1c(Cn2nc3nc(C(C)(C)C)nc(N4CCC(F)(F)C4)c3n2)nnc1S(C)(=O)=O` [Example 70, 5-tert-Butyl-7-(3,3-difluoro-pyrrolidin-1-yl)-2-(5-methanesulfonyl-4-methyl-4H-[1,2,4]triazol-3-ylmethyl)-2H-[1,2,3]triazolo[4,5-d]pyrimidine], the EC50 at human CB1 receptors is greater than 10000 nM; at human CB2 receptors it was 33.6 nM.

In the case of `CC(C)(C)c1nc(N2CC[C@](C)(O)C2)c2nn(CCC(F)(F)F)nc2n1` [Example 132-a, (S)-1-[5-tert-Butyl-2-(3,3,3-trifluoro-propyl)-2H-[1,2,3]triazolo[4,5-d]pyrimidin-7-yl]-3-methyl-pyrrolidin-3-ol], the EC50 at human CB1 receptors was greater than 10000 nM; on human CB2 receptors, 18.1 nM.

Regarding `Cn1nnnc1Cn1nc2nc(C(C)(C)C)nc(N3CC(F)(F)C(F)(F)C3)c2n1` [Example 102, 5-tert-Butyl-2-(1-methyl-1H-tetrazol-5-ylmethyl)-7-(3,3,4,4-tetrafluoro-pyrrolidin-1-yl)-2H-[1,2,3]triazolo[4,5-d]pyrimidine], the half-maximal effective concentration (EC50) was greater than 10000 nM at human CB1 receptors and 6.3 nM at human CB2 receptors.

Consider `CC(=O)N[C@H]1CCN(c2nc(OCC(C)(C)C)nc3nn(Cc4ncccc4Cl)nc23)C1` [Example 135, N—{(S)-1-[2-(3-Chloro-pyridin-2-ylmethyl)-5-(2,2-dimethyl-propoxy)-2H-[1,2,3]triazolo[4,5-d]pyrimidin-7-yl]-pyrrolidin-3-yl}-acetamide], for which the EC50 on human CB1 receptors was greater than 10000 nM; at human CB2 receptors (setting [1]) it was 606 nM.

Take `CC(C)(C)c1nc(N2CCC(F)(F)C2)c2nn(CC(=O)c3ccccn3)nc2n1` [Example 64, 2-[5-tert-Butyl-7-(3,3-difluoro-pyrrolidin-1-yl)-[1,2,3]triazolo[4,5-d]pyrimidin-2-yl]-1-pyridin-2-yl-ethanone]: the EC50 is greater than 10000 nM on human CB1 receptors and 2.4 nM on human CB2 receptors.

`CC(C)(C)c1nc(N2CCC(F)(F)C2)c2nn(CCc3ccncc3)nc2n1` [Example 59, 5-tert-Butyl-7-(3,3-difluoro-pyrrolidin-1-yl)-2-(2-pyridin-4-yl-ethyl)-2H-[1,2,3]triazolo[4,5-d]pyrimidine]: the EC50 on human CB1 receptors is greater than 10000 nM; at human CB2 receptors, 3.5 nM.

`CC(C)(C)c1nc(N2CCC(F)(F)C2)c2nn(Cc3c(Cl)cccc3Cl)nc2n1` [Example 12, 5-tert-Butyl-2-(2,6-dichloro-benzyl)-7-(3,3-difluoro-pyrrolidin-1-yl)-2H-[1,2,3]triazolo[4,5-d]pyrimidine]: the 50% effective concentration (EC50) at human CB1 receptors is greater than 10000 nM; on human CB2 receptors it was 1.5 nM.

As for `CC(C)(C)c1nc(N2CCOCC2)c2nn(Cc3ccc(F)cc3Cl)nc2n1` [Example 2, 5-tert-Butyl-2-(2-chloro-4-fluoro-benzyl)-7-morpholin-4-yl-2H-[1,2,3]triazolo[4,5-d]pyrimidine], the results for the EC50 on human CB1 receptors and at human CB2 receptors were greater than 10000 nM and 2.2 nM, respectively.

Consider `Cn1nncc1Cn1nc2nc(C(C)(C)C)nc(N3CCC(F)(F)C3)c2n1` [Example 82, 5-tert-Butyl-7-(3,3-difluoro-pyrrolidin-1-yl)-2-(3-methyl-3H-[1,2,3]triazol-4-ylmethyl)-2H-[1,2,3]triazolo[4,5-d]pyrimidine], for which the EC50 on human CB1 receptors was greater than 10000 nM; on human CB2 receptors it was 2.8 nM.

The record behind these values is patent US9067943B2, “[1,2,3]triazolo[4,5-D]pyrimidine derivatives” (priority 2011, dated 2015).
